One data set concerns HEK-293T-Jagged-1 cells. In kind it is cell-based, human. Here is the method:
(§1) HCT-116, HCT-15, S1-M1-80, S1, L929, HEK293T-Jagged-1 were seeded in each well of a 96-well plate with a series of concentrations (a serial dilution from 1000μM to 0.5 μM) of peptides or drugs including DAPT, Topotecan at 37° C. with 5% CO2 in a humidified incubator for 3 days. Percentage of survival was determined by MTS assay as described.

A further data set in a line: in vitro. Particulars: mouse. It counts as cell-based. Here is the method:
as §1

Data set [1] concerns S1-M1-80 cells. Kind of data set: cells. In kind it is cell-based, human. Here is the method: as §1
The test system of another data set is S1. In words: cells. It counts as cell-based, human. Here is the method: as §1
The next data set has as its system Jag1-Notch1 signalling. Kind of data set: Co-culture Notch luciferase reporter assay, Jag1-induced. In kind it is cell-based, human. Particulars: peptides 25 μM. Here is the method:
Jag1-Notch interaction is measured using a co-culture assay with one cell line expressing the Notch ligand Jagged1 (Jag1) and a second expressing Notch (either Notch1 or Notch2). A firefly luciferase reporter plasmid with 12 upstream CBF-1 binding site was transfected into signalling-receiving cells to report on Notch signalling (FIG. 1D). Peptides were tested for their activity in inhibiting Jag1-induced Notch signalling. Complete inhibition is equivalent to the background signal seen without induction (−Jag1). […] N1 (SEQ ID NO: 10) is a 15-mer derived from the EGF-like repeat 12 of Notch1 (C467-G481). This is consistent with the structural information that EGF-like repeat 12 of Notch1 is near the MNNL domain of Jag1 (FIGS. 1B and C).
Specificity of N1 (SEQ ID NO: 10) peptide in inhibiting different Notch ligand-induced Notch signaling was investigated using in vitro co-culture assay. HEK293T or CHO cells expressing Notch ligand (either Jag1, DLL1 or DLL4) are co-cultured with Notch1- or Notch2-expressing cells. Notch1 and Notch2 signalling can be measured by either luciferase reporter assay or by the formation of NICD1 and NICD2. […] Half inhibition is reached at between 50 to 100 μM. […] This contrasts with DAPT which affects all the above interactions.
HEK-293T-Jagged-1 cells were seeded in 24-well plates in triplicate per sample group, and human HCT-116 cells were seeded in one 60 mm dish. Cells were allowed to settle, and were transfected the following day after the medium was changed to be antibiotic free. HCT-116 cells were transfected with 12×CSL-Luc and Renilla-Luc, using Lipofectamine® 3000 (Invitrogen™), according to the manufacturer's instructions. After 24 hours, HCT-116 cells were scraped and 2.5×10^4 cells in 1 mL complete medium per well were added to both 24-well plates. Peptides were treated to cells with the desired concentrations. N—[N-(3,5-difluorophenacetyl)-L-alanyl]-S-phenylglycine t-butyl ester (DAPT) was used as positive control. Cells were co-cultured for 12 hours before measure the luciferase activity. After incubation, cells were lysed with luciferase lysis buffer. Notch activity in cells expressing the 12×CSL-Luc reporter construct was measured by a luciferase assay using Dual-Luciferase® Reporter Assay System (Promega).
For orientation: Reporter assays use an easily measured gene product as a stand-in for the process of interest.

Data set [2] relates to S1-M1-80 cells. In words: Clonogenicity assay, S1-M1-80. In kind it is cell-based, human. Particulars: S1-M1-80, single agent 1 μM. Here is the method: The procedure for colony formation assay consists of following steps. An appropriate number of cells per well were seeded on a 6-well plate in duplicate. The number of cells for seeding should be related to the aggressiveness of the treatment. The cells were incubated for 12 hours in a CO2 incubator at 37° C. and allow cells to attach to the plate. The cells were treated with peptides or (DAPT) to required concentrations. The cells were incubated in a in a CO2 incubator at 37° C. for about 10 days until cells in control well have formed colonies which are of a substantially good size (the minimum score is 100 cells per colony). After the incubation, the medium was removed and cells were rinsed with 5 ml 1×PBS (phosphate buffered saline. pH 7.2). The cells were then fixed with 1 ml methanol at room temperature for 10 min. After fixation, the cells were stained with 0.5% crystal violet solution and incubated at room temperature for 1 h. After staining, the plates were immersed in deionized water to rinse off crystal violet and air-dried at room temperature for overnight. The dry plates were pictured with scanner. The number of colonies in each well was counted by cell counter software.

Read-outs that look alike come from different tables or passages of the source. Residues, ends and D or L forms follow the SMILES beside them. No end group written: not given here.

These results are taken from patent US11117932B2, “Peptides for specific inhibition of Jag 1-Notch 1 pathway” (The Hong Kong Polytechnic University, priority 2018, dated 2021).

A word on the IC50: it is the concentration needed to halve the response being measured.

Regarding `CC[C@H](C)[C@H](NC(=O)[C@H](CCC(N)=O)NC(=O)[C@H](CC(=O)O)NC(=O)[C@H](CC(C)C)NC(=O)[C@H](CS)NC(=O)[C@@H](N)Cc1ccccc1)C(=O)NCC(=O)N[C@@H](CCC(=O)O)C(=O)N[C@@H](Cc1ccccc1)C(=O)N[C@@H](CCC(N)=O)C(=O)N[C@@H](CS)C(=O)N[C@H](C(=O)N[C@@H](CS)C(=O)N[C@@H](CCC(=O)O)C(=O)O)[C@@H](C)CC` [N102T466F-M479E, FCLDQIGEFQCICE] (H-FCLDQIGEFQCICE-OH; N-terminus and C-terminus assumed), the 50% inhibitory concentration (IC50) in the data set with HEK-293T-Jagged-1 cells is greater than 100 µM; with S1-M1-80 cells [1], 43.9 ± 3.4 µM. Further, in the data set “in vitro”, the IC50 at 3 days was greater than 100 µM.
As for `CC[C@H](C)[C@H](N)C(=O)N[C@@H](CS)C(=O)N[C@@H](CC(C)C)C(=O)N[C@@H](CC(=O)O)C(=O)N[C@@H](CCC(N)=O)C(=O)N[C@H](C(=O)NCC(=O)N[C@@H](CCC(=O)O)C(=O)N[C@@H](Cc1ccccc1)C(=O)N[C@@H](CCC(N)=O)C(=O)N[C@@H](CS)C(=O)N[C@H](C(=O)N[C@@H](CS)C(=O)N[C@@H](CCC(=O)O)C(=O)O)[C@@H](C)CC)[C@@H](C)CC` [N102T466I-M479E, ICLDQIGEFQCICE] (H-ICLDQIGEFQCICE-OH; N-terminus and C-terminus assumed), the half-maximal inhibitory concentration (IC50) was greater than 100 µM in the data set with HEK-293T-Jagged-1 cells and 15.2 ± 4.2 µM in the data set on S1-M1-80 cells [1]. The IC50 at 3 days in “in vitro” is greater than 100 µM.
As to `CC[C@H](C)[C@H](NC(=O)[C@H](CCC(N)=O)NC(=O)[C@H](CC(=O)O)NC(=O)[C@H](CC(C)C)NC(=O)[C@H](CS)NC(=O)[C@@H](N)CC(C)C)C(=O)NCC(=O)N[C@@H](CCC(=O)O)C(=O)N[C@@H](Cc1ccccc1)C(=O)N[C@@H](CCC(N)=O)C(=O)N[C@@H](CS)C(=O)N[C@H](C(=O)N[C@@H](CS)C(=O)N[C@@H](CCC(=O)O)C(=O)O)[C@@H](C)CC` [N102T466L-M479E, LCLDQIGEFQCICE] (H-LCLDQIGEFQCICE-OH; N-terminus and C-terminus assumed), the concentration for half-maximal inhibition (IC50) in the data set with HEK-293T-Jagged-1 cells was greater than 100 µM; with S1-M1-80 cells [1] it was 5.4 ± 1.2 µM. Also, the IC50 at 3 days in “in vitro” was greater than 100 µM.
Take `CC[C@H](C)[C@H](NC(=O)[C@H](CCC(N)=O)NC(=O)[C@H](CC(=O)O)NC(=O)[C@H](CC(C)C)NC(=O)[C@@H](N)CS)C(=O)NCC(=O)N[C@@H](CCC(=O)O)C(=O)N[C@@H](Cc1ccccc1)C(=O)N[C@@H](CCC(N)=O)C(=O)N[C@@H](CS)C(=O)N[C@H](C(=O)N[C@@H](CS)C(=O)N[C@@H](CCSC)C(=O)N1CCC[C@H]1C(=O)O)[C@@H](C)CC` [Peptide N101, CLDQIGEFQCICMP] (H-CLDQIGEFQCICMP-OH; N-terminus and C-terminus assumed): the values for the IC50 in the data set on S1-M1-80 cells [1] and in the data set on S1 were 14.1 ± 0.7 µM and greater than 50 µM, respectively.
As to `CC[C@H](C)[C@H](NC(=O)[C@H](CCC(N)=O)NC(=O)[C@H](CC(=O)O)NC(=O)[C@H](CC(C)C)NC(=O)[C@@H](N)CS)C(=O)NCC(=O)N[C@@H](CCC(=O)O)C(=O)N[C@@H](Cc1ccccc1)C(=O)N[C@@H](CCC(N)=O)C(=O)N[C@@H](CS)C(=O)N[C@H](C(=O)N[C@@H](CS)C(=O)N[C@@H](CCSC)C(=O)O)[C@@H](C)CC` [Peptide N102, CLDQIGEFQCICM] (H-CLDQIGEFQCICM-OH; N-terminus and C-terminus assumed), the half-inhibitory concentration (IC50) is 10.2 ± 0.4 µM with S1-M1-80 cells [1] and greater than 50 µM with S1. The “inhibition of Jag1-induced Notch signaling compared with N1” value in the data set with Jag1-Notch1 signalling is listed as “stronger inhibitory effect than N1”.
The corresponding values for `CC[C@H](C)[C@H](NC(=O)[C@H](CS)NC(=O)[C@H](CCC(N)=O)NC(=O)[C@H](Cc1ccccc1)NC(=O)[C@H](CCC(=O)O)NC(=O)CNC(=O)[C@H](Cc1c[nH]c2ccccc12)NC(=O)[C@H](CCC(N)=O)NC(=O)[C@H](CC(=O)O)NC(=O)[C@H](CC(C)C)NC(=O)[C@@H](N)CS)C(=O)N[C@@H](CS)C(=O)N[C@@H](CCSC)C(=O)O` [Peptide N102I471W, CLDQWGEFQCICM] (H-CLDQWGEFQCICM-OH; N-terminus and C-terminus assumed) are greater than 50 µM, greater than 100 µM and “slight improvement”.
In the case of `CC[C@H](C)[C@H](NC(=O)[C@H](CCC(N)=O)NC(=O)[C@H](CC(=O)O)NC(=O)[C@H](CC(C)C)NC(=O)[C@@H](N)CS)C(=O)NCC(=O)N[C@@H](CCC(=O)O)C(=O)N[C@@H](Cc1ccccc1)C(=O)N[C@@H](CCC(N)=O)C(=O)N[C@@H](CS)C(=O)N[C@H](C(=O)N[C@@H](CS)C(=O)O)[C@@H](C)CC` [Peptide N103, CLDQIGEFQCIC] (H-CLDQIGEFQCIC-OH; N-terminus and C-terminus assumed), the results for the IC50 with S1-M1-80 cells [1] and with S1 were greater than 50 µM and greater than 100 µM, respectively.
With `CC[C@H](C)[C@H](NC(=O)[C@H](CS)NC(=O)[C@H](CCC(N)=O)NC(=O)[C@H](Cc1ccccc1)NC(=O)[C@H](CCC(=O)O)NC(=O)CNC(=O)[C@@H](NC(=O)[C@H](CCC(N)=O)NC(=O)[C@H](CC(=O)O)NC(=O)[C@H](CC(C)C)NC(=O)[C@@H](N)CS)[C@@H](C)CC)C(=O)O` [Peptide N104, CLDQIGEFQCI] (H-CLDQIGEFQCI-OH; N-terminus and C-terminus assumed), the IC50 with S1-M1-80 cells [1] is 28.4 ± 0.6 µM; in the data set on S1, greater than 50 µM. The “inhibition of Jag1-induced Notch signaling compared with N1” value with Jag1-Notch1 signalling is “stronger inhibitory effect than N1”.
Take `CC[C@H](C)[C@H](NC(=O)[C@H](CCC(N)=O)NC(=O)[C@H](CC(=O)O)NC(=O)[C@H](CC(C)C)NC(=O)[C@@H](N)CS)C(=O)NCC(=O)N[C@@H](CCC(=O)O)C(=O)N[C@@H](Cc1ccccc1)C(=O)N[C@@H](CCC(N)=O)C(=O)N[C@@H](CS)C(=O)O` [Peptide N105, CLDQIGEFQC] (H-CLDQIGEFQC-OH; N-terminus and C-terminus assumed): the half-maximal inhibitory concentration (IC50) in the data set on S1-M1-80 cells [1] and in the data set with S1 was greater than 100 µM in each case.
For the compound `CC(C)C[C@H](NC(=O)[C@@H](N)CS)C(=O)N[C@@H](CC(=O)O)C(=O)N[C@@H](CCC(N)=O)C(=O)O` [Peptide N111, CLDQ] (H-CLDQ-OH; N-terminus and C-terminus assumed), the IC50 in the data set on S1-M1-80 cells [1] and in the data set on S1 was greater than 100 µM each time.
For `CC[C@H](C)[C@H](N)C(=O)NCC(=O)N[C@@H](CCC(=O)O)C(=O)N[C@@H](Cc1ccccc1)C(=O)N[C@@H](CCC(N)=O)C(=O)N[C@@H](CS)C(=O)N[C@H](C(=O)N[C@@H](CS)C(=O)N[C@@H](CCSC)C(=O)N1CCC[C@H]1C(=O)NCC(=O)O)[C@@H](C)CC` [Peptide N112, IGEFQCICMPG] (H-IGEFQCICMPG-OH; N-terminus and C-terminus assumed), the IC50 with S1-M1-80 cells [1] and in the data set with S1 was greater than 100 µM throughout.
On to `CC[C@@]1(O)C(=O)OCc2c1cc1n(c2=O)Cc2cc3c(CN(C)C)c(O)ccc3nc2-1` [Topotecan, reference compound], for which the IC50 was 14.9 ± 0.1 µM in the data set on S1-M1-80 cells [1] (Homo sapiens, 72 h, S1-M1-80 cells, 3 days, MTS, read-out: IC50 (μM) s1-m1-80) and 0.19 ± 0.05 µM in the data set with S1 (Homo sapiens, 72 h, S1 cells, 3 days, MTS, read-out: IC50 (μM) S1). Further, the colony formation in the data set with S1-M1-80 cells [2] is 1263 colonies/well.
As for CLDQIG [Peptide N109, CLDQIG], the IC50 in the data set with S1-M1-80 cells [1] and in the data set on S1 was greater than 100 µM in each case.
With CLDQIGE [Peptide N108, CLDQIGE], the IC50 in the data set on S1-M1-80 cells [1] and in the data set with S1 was greater than 100 µM in each case.
CLDQIGEF [Peptide N107, CLDQIGEF]: the IC50 with S1-M1-80 cells [1] and with S1 was greater than 100 µM throughout.
As to CLDQIGEFQ [Peptide N106, CLDQIGEFQ], the IC50 with S1-M1-80 cells [1] and with S1 was greater than 100 µM each time.
